Counter-ions that a name gives are not always drawn. Like-named read-outs stand apart in the source and are kept apart here.
Key:
Actinomyces israellii = test: agar-dilution MIC vs. anaerobic bacteria; type: cell-based; details: strain W855; Table 6; disodium salt, monohydrate
Method: (§1) The agar-dilution procedure described by the International Collaborative Study (ICS) group was used to determine MIC values.
The MIC was determined by the agar-dilution method.

Clostridium perfringens = test: microbe, parasite or virus in culture; type: cell-based; details: strain 81; Table 6; disodium salt, monohydrate
Eubacterium aerofaciens = test: agar-dilution MIC vs. anaerobic bacteria; type: cell-based; details: strain 1235; Table 6; disodium salt, monohydrate
[1] = tested on: Peptococcus asaccharolyticus; test: agar-dilution MIC vs. anaerobic bacteria; type: cell-based; details: strain 1302; Table 6; disodium salt, monohydrate
Propionibacterium acnes = test: agar-dilution MIC vs. anaerobic bacteria; type: cell-based; details: strain 79; Table 6; disodium salt, monohydrate
Bacteroides fragilis [2] = test: agar-dilution MIC vs. anaerobic bacteria; type: cell-based; details: Table 6, disodium salt, monohydrate
[3] = tested on: Bacteroides melanogenicus; test: agar-dilution MIC vs. anaerobic bacteria; type: cell-based; details: Table 6, disodium salt, monohydrate
Bacteroides vulgatis = test: agar-dilution MIC vs. anaerobic bacteria; type: cell-based; details: strain 1211; Table 6; disodium salt, monohydrate
Fusobacterium symbiosum = test: agar-dilution MIC vs. anaerobic bacteria; type: cell-based; details: strain 1470; Table 6; disodium salt, monohydrate
[4] = tested on: Fusobacterium necrophorum; test: agar-dilution MIC vs. anaerobic bacteria; type: cell-based; details: strain 6054A; Table 6; disodium salt, monohydrate
B. corrodens = test: agar-dilution MIC vs. Bacteroides species; type: cell-based; details: B. corrodens 1874; 24 hours; Table 8; disodium salt, monohydrate
Method: as §1
(§2) The MIC values were determined by the agar-dilution method, the endpoints being read 24 hours after incubation, and are recorded in Table 8, which follows.

B. thetaiotaomicron = test: agar-dilution MIC vs. Bacteroides species; type: cell-based; details: 24 hours, Table 8, disodium salt, monohydrate
Method: as §1, §2

B. vulgatis = test: agar-dilution MIC vs. Bacteroides species; type: cell-based; details: B. vulgatis 1563; 24 hours; Table 8; disodium salt, monohydrate
Method: as §1, §2

Bacteroides fragilis [5] = test: agar-dilution MIC vs. Bacteroides species; type: cell-based; details: 24 hours, Table 8, disodium salt, monohydrate
Method: as §1, §2

[6] = tested on: Peptococcus asaccharolyticus; test: agar-dilution MIC vs. Peptococcus and Peptostreptococcus species; type: cell-based; details: Table 9, disodium salt, monohydrate
Method: as §1
(§3) The MIC values were determined by the agar-dilution method, and are recorded in Table 9, which follows.

Peptococcus constellatus = test: as above; type: cell-based; details: Pc. constellatus 1468; Table 9; disodium salt, monohydrate
Method: as §1, §3

Peptococcus magnus = test: as above; type: cell-based; details: Table 9, disodium salt, monohydrate
Method: as §1, §3

Peptococcus prevoti = test: as above; type: cell-based; details: Table 9, disodium salt, monohydrate
Method: as §1, §3

[7] = tested on: Peptostreptococcus anaerobius; test: as above; type: cell-based; details: Table 9, disodium salt, monohydrate
Method: as §1, §3

[8] = tested on: Peptostreptococcus intermedius; test: as above; type: cell-based; details: Table 9, disodium salt, monohydrate
Method: as §1, §3

Trichomonas vaginalis = test: broth dilution assay, antitrichomonal activity; type: cell-based; details: Trichomonas vaginalis; broth dilution assay; read-out: Minimal Inhibitory Concentration
hygroscopicity = type: physicochemical; details: monohydrate, brown powder
Staphylococcus aureus = test: disc-plate screening procedure, zone of inhibition
Streptococcus pyogenes = test: disc-plate screening procedure, zone of inhibition; details: read-out: Zone Diameter
[9] = tested on: Streptococcus sp. (Group D); test: disc-plate screening procedure, zone of inhibition; details: read-out: Zone Diameter
Streptococcus pneumoniae = test: disc-plate screening procedure, zone of inhibition; details: read-out: Zone Diameter

For `Cc1cccc(O)c1C(=O)OC(C)c1cccc2nc3c(C(=O)O)cccc3nc12` (stereo not shown) [A-32256 disodium salt, 6-[1-[(2-hydroxy-6-methylbenzoyl)oxy]ethyl]-1-phenazinecarboxylic acid, disodium salt, monohydrate], which MIC (Actinomyces israellii) is on record?
The MIC was at most 0.5 µg/mL.

What about the MIC (Clostridium perfringens) of the same compound?
The MIC was 1.0 µg/mL.

What about the MIC (Eubacterium aerofaciens) of the same compound?
The MIC was at most 0.5 µg/mL.

What about the MIC [1] of the same compound?
The MIC was at most 0.5 µg/mL.

What about the MIC (Propionibacterium acnes) of the same compound?
The MIC was at most 0.5 µg/mL.

What about the MIC (Bacteroides fragilis [2]; strain 111) of the same compound?
Its MIC is at most 0.5 µg/mL.

What about the MIC (Bacteroides fragilis [2]; strain 1877) of the same compound?
The MIC was at most 0.5 µg/mL.

What about the MIC (Bacteroides fragilis [2]; strain 1936B) of the same compound?
Its MIC is at most 0.5 µg/mL.

And the MIC ([3]; strain 1856/28)?
The MIC was 32 µg/mL.

And the MIC ([3]; strain 2736)?
Its MIC is at most 0.5 µg/mL.

What about the MIC (Bacteroides vulgatis) of the same compound?
Its MIC is at most 0.5 µg/mL.

And the MIC (Fusobacterium symbiosum)?
The MIC was at most 0.5 µg/mL.

What about the MIC [4] of the same compound?
Its MIC is 1.0 µg/mL.

And the MIC (B. corrodens)?
The MIC was at most 0.015 µg/mL.

What about the MIC (B. thetaiotaomicron; B. thetaiotaomicron 1438) of the same compound?
Its MIC is 0.03 µg/mL.

And the MIC (B. thetaiotaomicron; B. thetaiotaomicron 1900A)?
Its MIC is 0.03 µg/mL.

And the MIC (B. vulgatis)?
Its MIC is 0.03 µg/mL.

And the MIC (Bacteroides fragilis [5]; B. fragilis 2)?
The MIC was at most 0.015 µg/mL.

And the MIC (Bacteroides fragilis [5]; B. fragilis 9)?
Its MIC is at most 0.015 µg/mL.

What about the MIC (Bacteroides fragilis [5]; B. fragilis 62) of the same compound?
Its MIC is at most 0.015 µg/mL.

And the MIC (Bacteroides fragilis [5]; B. fragilis 103)?
The MIC was at most 0.015 µg/mL.

What about the MIC (Bacteroides fragilis [5]; B. fragilis 104) of the same compound?
Its MIC is at most 0.015 µg/mL.

What about the MIC (Bacteroides fragilis [5]; B. fragilis 106) of the same compound?
Its MIC is at most 0.015 µg/mL.

And the MIC (Bacteroides fragilis [5]; B. fragilis 107)?
Its MIC is 0.03 µg/mL.

What about the MIC (Bacteroides fragilis [5]; B. fragilis 108) of the same compound?
Its MIC is at most 0.015 µg/mL.

What about the MIC (Bacteroides fragilis [5]; B. fragilis 110) of the same compound?
The MIC was at most 0.015 µg/mL.

What about the MIC (Bacteroides fragilis [5]; B. fragilis 111) of the same compound?
Its MIC is 0.03 µg/mL.

What about the MIC (Bacteroides fragilis [5]; B. fragilis 112) of the same compound?
Its MIC is at most 0.015 µg/mL.

What about the MIC (Bacteroides fragilis [5]; B. fragilis 113) of the same compound?
The MIC was at most 0.015 µg/mL.

What about the MIC (Bacteroides fragilis [5]; B. fragilis 1470) of the same compound?
Its MIC is at most 0.015 µg/mL.

And the MIC (Bacteroides fragilis [5]; B. fragilis 1877)?
The MIC was at most 0.015 µg/mL.

And the MIC (Bacteroides fragilis [5]; V. fragilis 1451 (so in the source))?
The MIC was 0.03 µg/mL.

What about the MIC ([6]; Pc. asaccharolyticus 1302) of the same compound?
The MIC was at most 0.06 µg/mL.

What about the MIC ([6]; Pc. asaccharolyticus 1344) of the same compound?
The MIC was at most 0.06 µg/mL.

What about the MIC (Peptococcus constellatus) of the same compound?
Its MIC is 0.5 µg/mL.

What about the MIC (Peptococcus magnus; Pc. magnus 1401) of the same compound?
Its MIC is 0.125 µg/mL.

And the MIC (Peptococcus magnus; Pc. magnus 1421)?
Its MIC is 0.125 µg/mL.

And the MIC (Peptococcus magnus; Pc. magnus 1477)?
Its MIC is 0.125 µg/mL.

And the MIC (Peptococcus prevoti; Pc. prevoti 1281)?
Its MIC is 0.125 µg/mL.

And the MIC (Peptococcus prevoti; Pc. prevoti 1293)?
Its MIC is 0.125 µg/mL.

And the MIC (Peptococcus prevoti; Pc. prevoti 1407)?
Its MIC is 0.5 µg/mL.

And the MIC ([7]; Ps. anaerobius 8)?
Its MIC is 0.25 µg/mL.

And the MIC ([7]; Ps. anaerobius 52)?
Its MIC is 0.5 µg/mL.

And the MIC ([7]; Ps. anaerobius 59)?
The MIC was at most 0.06 µg/mL.

What about the MIC ([7]; Ps. anaerobius 1418) of the same compound?
Its MIC is at most 0.06 µg/mL.

What about the MIC ([7]; Ps. anaerobius 1428) of the same compound?
Its MIC is 0.25 µg/mL.

What about the MIC ([7]; Ps. anaerobius 1451) of the same compound?
Its MIC is at most 0.06 µg/mL.

And the MIC ([7]; Ps. anaerobius 1477)?
Its MIC is 0.125 µg/mL.

What about the MIC ([8]; Ps. intermedius 1264) of the same compound?
Its MIC is at most 0.06 µg/mL.

And the MIC ([8]; Ps. intermedius 1624)?
Its MIC is at most 0.06 µg/mL.

And the MIC (Trichomonas vaginalis)?
Its MIC is under 0.975 µg/mL.

What about the hygroscopicity (hygroscopicity) of the same compound?
The hygroscopicity was “hygroscopic”.

And the zone of inhibition at 10 µg/disc (Staphylococcus aureus; read-out: Zone Diameter, S. aureus 3055, benzylpenicillin-susceptible, 10 mcg/disc)?
The zone of inhibition at 10 µg/disc was 17.8 mm.

And the zone of inhibition at 100 µg/disc (Staphylococcus aureus; read-out: Zone Diameter, S. aureus 3055, benzylpenicillin-susceptible, 100 mcg/disc)?
Its zone of inhibition at 100 µg/disc is 25.2 mm.

And the zone of inhibition at 10 µg/disc (Staphylococcus aureus; read-out: Zone Diameter, S. aureus 3074, benzylpenicillin-resistant, 10 mcg/disc)?
Its zone of inhibition at 10 µg/disc is 16.2 mm.

And the zone of inhibition at 100 µg/disc (Staphylococcus aureus; read-out: Zone Diameter, S. aureus 3074, benzylpenicillin-resistant, 100 mcg/disc)?
Its zone of inhibition at 100 µg/disc is 23.3 mm.

What about the zone of inhibition at 10 µg/disc (Staphylococcus aureus; read-out: Zone Diameter, S. aureus 3130, methicillin-resistant, 10 mcg/disc) of the same compound?
The zone of inhibition at 10 µg/disc was 19.8 mm.

And the zone of inhibition at 100 µg/disc (Staphylococcus aureus; read-out: Zone Diameter, S. aureus 3130, methicillin-resistant, 100 mcg/disc)?
The zone of inhibition at 100 µg/disc was 26.8 mm.

What about the zone of inhibition at 10 µg/disc (Streptococcus pyogenes) of the same compound?
Its zone of inhibition at 10 µg/disc is 17 mm.

And the zone of inhibition at 100 µg/disc (Streptococcus pyogenes)?
Its zone of inhibition at 100 µg/disc is 21 mm.

And the zone of inhibition at 10 µg/disc [9]?
The zone of inhibition at 10 µg/disc was 15.6 mm.

And the zone of inhibition at 100 µg/disc [9]?
Its zone of inhibition at 100 µg/disc is 20.4 mm.

And the zone of inhibition at 10 µg/disc (Streptococcus pneumoniae)?
The zone of inhibition at 10 µg/disc was 25 mm.

And the zone of inhibition at 100 µg/disc (Streptococcus pneumoniae)?
Its zone of inhibition at 100 µg/disc is 31 mm.
